Data from patent US5242945A, “Tetronic and thiotetronic acid derivatives as phospholipase A2 inhibitors” (American Home Products Corporation, priority 1991, dated 1993).

Experiments:
human platelet PLA2 = biological target: T1, human platelet PLA2 (Homo sapiens, UniProt P14555); experiment: in vitro isolated phospholipase A2 assay, human platelet PLA2; assay type: biochemical; details: for inhibition at 10 µM / inhibition at 50 µM: read-out: % Inhibition HP (human platelet)
T1 construct: platelet acid extract PLA2; from tissue; host or cells: human platelets, semipurified acid extract
T1 sequence (P14555 21-144): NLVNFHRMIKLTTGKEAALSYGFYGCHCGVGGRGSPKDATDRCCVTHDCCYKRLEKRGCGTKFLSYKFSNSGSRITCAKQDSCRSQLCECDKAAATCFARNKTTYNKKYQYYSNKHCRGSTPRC
Description: (§1) The compounds of the invention are tested in an in vitro isolated phospholipase A2 assay to determine the ability of the test compounds to inhibit the release of arachidonic acid from an arachidonic acid-containing substrate by the action of phospholipase A2 enzyme from human and non-human sources.
(§2) Into a 15 mL polypropylene tube are added the following:
(§3) ^3 H-AA E. coli substrate^1
(§4) Tris-HCl (0.5 M) pH 7.5^3
(§5) PLA2 25 Volume yielding 12%
(§6) 100 hydrolysis in 10 min.
(§7) *pre-incubate at room temperature 30 min prior to substrate addition.
(§8) ^6 Two human PLA2 enzymes are used: a) Semipurified human
(§9) platelet acid extract PLA2 (in 10 mM sodium acetate buffer, pH 4.5).
(§10) Remove protein precipitate by centrifugation at about 2200 rpm for 10
(§11) minutes. b) Purified human synovial fluid.
(§12) Incubate the 100 μL reaction mixture for 10 minutes at 37° C. in a shaking water bath. The reaction is terminated by the addition of 2 mL tetrahydrofuran, followed by vortexing. NH2 columns (100 μg/mL--Analytichem International) are conditioned with 0.5 mL tetrahydrofuran followed by 0.5 mL tetrahydrofuran/water (2 mL:0.1 mL, v/v).
(§13) The sample is loaded onto the columns and slowly drawn through them. The hydrolyzed arachidonic acid retained in the columns is eluted therefrom with 1 mL tetrahydrofuran/glacial acetic acid (2%). The arachidonic acid is transferred to scintillation vials and quantitated by β-counting analysis. A "total counts" sample is prepared by pipetting 25 μL ^3 H-arachidonate E. coli directly into a scintillation vial to which is added 1 mL tetrahydrofuran. 10 mL aquasol (scintillation cocktail) is added to all samples.

[1] = biological target: T2, human synovial fluid PLA2 (Homo sapiens, UniProt P14555); experiment: in vitro isolated phospholipase A2 assay, human synovial fluid PLA2; assay type: biochemical; details: for inhibition at 10 µM / inhibition at 50 µM: read-out: % Inhibition HSF (human synovial fluid)
T2 construct: Purified human synovial fluid; from tissue; host or cells: human synovial fluid
T2 sequence (P14555 21-144): T1 sequence (P14555 21-144)
Description: as §1, §2, §3, §4, §5, §6, §7, §8, §9, §10, §11, §12, §13

[2] = at 10 μM, + values given without explanation

| Molecule | inhibition at 10 µM (human platelet PLA2; [2]) [%] | inhibition at 10 µM [1, 2] [%] | other results |
| --- | --- | --- | --- |
| 4-Hydroxy-3-(1-oxoeicosanoyl)-2(5H)-furanone [Example 11] |  |  | % Inhibition HP (human platelet) (human platelet PLA2; [2]): 6.7%; % Inhibition HSF (human synovial fluid) [1, 2]: 32% |
| O=C(CCc1ccccc1)C1=C(O)COC1=O [Example 2, 4-Hydroxy-3-(1-oxo-3-phenylpropyl)-2(5H)-furanone] |  |  | inhibition at 50 µM (human platelet PLA2): 8%; inhibition at 50 µM [1]: 27% |
| O=C(COCc1ccccc1)C1=C(O)COC1=O [Example 3, 4-Hydroxy-3-[(phenylmethoxy)acetyl]-2(5H)-furanone] |  |  | inhibition at 50 µM (human platelet PLA2): 3.5%; inhibition at 50 µM [1]: 25% |
| O=C(CCc1c[nH]c2ccccc12)C1=C(O)COC1=O [Example 4, 4-Hydroxy-3-[3-(1H-indol-3-yl)-1-oxopropyl]-2(5H)-furanone] |  |  | inhibition at 50 µM (human platelet PLA2): 10%; inhibition at 50 µM [1]: 25% |
| O=C(CCCc1c[nH]c2ccccc12)C1=C(O)COC1=O [Example 5, 4-Hydroxy-3-[4-(1H-indol-3-yl)-1-oxobutyl]-2(5H)-furanone] |  |  | inhibition at 50 µM (human platelet PLA2): 0%; inhibition at 50 µM [1]: 11% |
| O=C(/C=C/c1cccc(C(F)(F)F)c1)C1=C(O)COC1=O [Example 10, (E)-4-Hydroxy-3-(1-oxo-3-(3-(trifluoromethyl)phenyl)-2-propenyl)-2 (5H)-furanone] | 9.6 | 34 |  |
| COc1ccc(OC)c(/C=C/C(=O)C2=C(O)COC2=O)c1 [Example 13, (E)-3-(3-(2,5-Dimethoxyphenyl)-1-oxo-2-propenyl)-4-hydroxy-2 (5H)-furanone] | 11 | 34 |  |
| COc1ccc(/C=C/C(=O)C2=C(O)COC2=O)cc1OC [Example 16, (E)-3-(3-(3,4-Dimethoxyphenyl)-1-oxo-2-propenyl)-4-hydroxy-2 (5H)-furanone] | 2.1 | 5.5 |  |
| CCCCCCCC/C=C\CCCCCCCC(=O)C1=C(O)C(C)(C)OC1=O [Example 17, (Z)-4-Hydroxy-5,5-dimethyl-3-(1-oxo-9-octadecenyl)-2(5H)-furanone] | 16 | 9 |  |
| O=C(CCCCCOc1ccc(Cl)cc1)C1=C(O)COC1=O [Example 21, 4-Hydroxy-3-[6-(4-chlorophenoxy)-1-oxohexyl]-2(5H)-furanone] | 2.5 | 24 |  |
| CCCCCCCC/C=C\CCCCCCCC(=O)OCC(CCC(=O)C1=C(O)COC1=O)OC(=O)CCCCCCC/C=C\CCCCCCCC (stereo not drawn) [Example 24, (Z)-9-Octadecanoic acid 5-(2,5-dihydro-4-hydroxy-3-furanyl)-5-oxo-1,2-pentanediyl ester] | 56.6 | 79.5 |  |
| CCCCCCCC/C=C\CCCCCCCC(=O)OCC(CCC(=O)O)OC(=O)CCCCCCC/C=C\CCCCCCCC (stereo not drawn) [Example 24A, 4,5-Bis[((Z)-1-oxo-9-octadecenyl)oxy]pentanoic acid] | 45.4 | 80.7 |  |
| CC1=C(CC(=O)O)c2cc(F)ccc2/C1=C\c1ccc([S+](C)[O-])cc1 (stereo not drawn) [sulindac, reference compound] |  |  | IC50 [1]: 30.2 µM |

Second part, led by results:

| inhibition at 10 µM (human platelet PLA2; [2]) [%] | inhibition at 10 µM [1, 2] [%] | Molecule | other results |
| --- | --- | --- | --- |
| 8.4 | 18.6 | CCCCCCCC[C@@H]1C[C@@H]1CCCCCCCC(=O)C1=C(O)CSC1=O (relative stereo) [Example 52, 4-Hydroxy-3-[(Z)-8-(2-octylcyclopropyl)-1-oxooctyl]-2(5H)-thiophenone] |  |
| 1.7 | 0.1 | CCCCC[C@@H]1C[C@@H]1CC(=O)C1=C(O)COC1=O (relative stereo) [Example 53, 4-Hydroxy-3-[(Z)-1-oxo-2-(2-pentylcyclopropy)ethyl]-2(5H)-furanone] |  |
| 34.9 | 31.2 | CCCCCCCCC#CCCCCCCCC(=O)C1=C(O)COC1=O [Example 27, 4-Hydroxy-3-(1-oxo-9-octadecynyl)-2(5H)-furanone] |  |
| 37.4 | 12.6 | CCCCCCCCCCCCCCCCCC(=O)C1=C(O)COC1=O [Example 28, 4-Hydroxy-3-(1-oxooctadecyl)-2(5H)-furanone] |  |
| 20.6 | 33.6 | O=C(CCCCCCCCOc1ccc(Cl)cc1)C1=C(O)COC1=O [Example 29, 3-[9-(4-Chlorophenoxy)-1-oxononyl]-4-hydroxy-2(5H)-furanone] |  |
| 33.5 | 34.5 | CCCCCCCCCCCCNC(=O)OCC(CCC(=O)C1=C(O)COC1=O)OC(=O)NCCCCCCCCCCCC (stereo not drawn) [Example 31, Dodecylcarbamic acid 5-(2,5-dihydro-4-hydroxy-2-oxo-3-furanyl)-5-oxo-1,2-pentanediyl ester] |  |
| 47.7 | 43.2 | CCCCCCCCCCCCNC(=O)OCC(CCC(=O)O)OC(=O)NCCCCCCCCCCCC (stereo not drawn) [Example 31A, 4,5-Bis[[(Dodecylamino)carbonyl]oxy]pentanoic acid] |  |
| 31.6 | 15.1 | O=C(CCCCCOc1ccc(OCc2ccc(Cl)cc2)cc1)C1=C(O)COC1=O [Example 32, 4-Hydroxy-3-[6-[4-[(4-chlorophenyl)methoxyphenoxy]]1-oxohexyl]-2(5H)-furanone] |  |
| 37.1 | 10 | CCCCCCOc1ccc(OCCCCCC(=O)C2=C(O)COC2=O)cc1 [Example 33, 4-Hydroxy-3-[6-[4-(hexyloxy)phenoxy]-1-oxohexyl]-2(5H)-furanone] |  |
| 25.4 | 10.3 | CCCCCCCC/C=C/CCCCCCCC(=O)C1=C(O)COC1=O [Example 36, 4-Hydroxy-3-((E)-1-oxo-9-octadecenyl)-2(5H)-furanone] |  |
| 22.5 | 35.7 | CCCCCCCc1ccc(OCCCCCC(=O)C2=C(O)COC2=O)cc1 [Example 37, 3-[6-(4-Heptylphenoxy)-1-oxohexyl]-4-hydroxy-2(5H)-furanone] |  |
| 24.4 | 20.3 | CC(C)(C)CC(C)(C)c1ccc(OCCCCCC(=O)C2=C(O)COC2=O)cc1 [Example 39] |  |
| 87.7 | 74.2 | CCCCCCCC/C=C\CCCCCCCCNC(=O)OC(CCC(=O)O)COC/C=C(\C)CCC=C(C)C (stereo not drawn) [Example 40A, 5-[((E)-3,7-Dimethyl-2,6-octadienyl)oxy]-4-[[((Z)-9-octadecenylamino)carbonyl]oxy]pentanoic acid] |  |
